Results on one substance are retold here after patent publication US20260250426A1, “AMPHIPHILIC CELLULOSE DERIVATIVES, METHODS OF MAKING, AND USES THEREOF” (Virginia Tech Intellectual Properties, Inc., priority 2022, published 2026).

The series can be described thus: Polymer solubility in pH 6.8 buffer (visual inspection). As for the experimental part:
A general workflow for evaluating cellulose ester derivatives for ASD applications can include evaluating polymer solubility, nucleation time, and surface tension. Polymer solubility was evaluated by examining solubility in pH 6.8 buffer and organic solvents. Nucleation induction time was measured using 9 different polymers and 3 model therapeutic compounds. Surface tension was determined by correlating surface tension and induction time.

For the substance CA320S Glutarate [CA320GA], the “Water solubility (in words)” value is listed as “water-soluble”.
